Each structure is given as a SMILES string.

These results are taken from publication PMC5913254, “A novel in vitro metric predicts in vivo efficacy of inhaled silver-based antimicrobials in a murine Pseudomonas aeruginosa pneumonia model” (Scientific Reports, 2018).

Series [1] has as its system Pseudomonas aeruginosa (PA M57-15). Description: Histology of lungs of infected, treated mice. As to conditions: lungs at 25 hours after three treatments; for aggregate histological score: inflammation, consolidation, congestion/haemorrhage each 0 to +3, sham +6. The class given is in vivo, mouse. The method, then:
Male C57BL/6 J mice were infected with PA M57-15 and treated with the four SCCs or vehicle as described above. At 25 hours, following three treatments, the mice were humanely euthanized by cervical dislocation following anesthetization by a ketamine/xylazine cocktail. Lungs of the mice were harvested aseptically, the lung sections fixed in 10% formalin for a minimum of 12 hours, and embedded in paraffin using an automated rapid tissue processor (Peloris-Leica Microsystems Inc., Buffalo Grove, IL). Two 5-micron thick sections were obtained from each paraffin block and stained with Haematoxylin/Eosin on an automated stainer (Symphony, Ventana-Roche, Tucson, AZ). Sections were evaluated by light microscopy (Nikon Eclipse-Ni, Nikon Instruments, Inc., Americas), scored using a semi-quantitative scale from 0 (negative), +1 (mild), +2 (moderate), and +3 (severe) for the following parameters: inflammation, consolidation, congestion/haemorrhage, and an aggregate score was calculated for each group. The presence of bacterial colonies if any was also noted. A pathologist, who was blinded to the treatment received by the mice, performed the examination and analysis of tissues. A total of two mice were used in each treatment group.

The test system of series [2] is primary human dermal fibroblasts (HDFs). Description: alamarBlue cytotoxicity assay against HDFs (in vitro LD50). The class given is cell-based. As to conditions: 24 h. As for the experimental part: (§1) 16HBEs (16HBE14o-), generously provided by Dr. D. Gruenert (University of California, San Francisco, CA) are a human bronchial epithelial cell line transformed with SV40 large T-antigen using the replication-defective pSVori plasmid. 16HBEs were used as a model to determine the relative toxicities of the SCCs to airway cells. Cells between passages 20 to 35 were cultured in Minimum Essential Medium with Earle’s Balanced Salts (Sigma Aldrich) and non-essential amino acids supplemented with penicillin-streptomycin (1%), L-glutamine (1%), and foetal bovine serum (10%). Additionally, primary human dermal fibroblasts (HDFs) were also utilized for in vitro toxicity studies. HDFs at passage 4 were generously donated by Carol Tamminga, M.D. (University of Texas Southwestern Medical Center, Dallas, TX). HDFs were cultured in Dulbecco’s Modified Eagle Medium (Sigma Aldrich) supplemented with penicillin-streptomycin (1%), L-glutamine (1%), and foetal bovine serum (10%) and were utilized between passage 7 to 14 for in vitro toxicity studies. 16HBE and HDF cultures were assessed for bacterial contamination visually, while mycoplasma contamination was assessed both visually and through a PCR-based Universal Mycoplasma Detection Kit assay (ATCC® 30-1012K^TM).
(§2) 16HBEs and HDFs grown to confluency (90–95%) as described above were sub-cultured, re-suspended in the appropriate medium, and seeded in wells of clear 96-well plate(s) at either 25,000 cells/well (16HBEs) or 15,000 cells/well (HDFs) with 100 µL of feeding media and incubated over 24 hours at 37 °C, 5% CO2, and 100% RH. The cells were then washed once with sterile phosphate buffered saline (PBS, pH = 7.4) and 100 µL of SCCs or the Ag-PPE-SCKs at various concentrations in OPTI-MEM® (Invitrogen) with 3.3% (v/v) DMSO, or without for the Ag-PPE-SCKs, was added to the cells. Next, 10 µL of alamarBlue® (Invitrogen) was added to each well and the plates were re-incubated for 24 h. Finally, the plates were measured for optical density at 570 and 600 nm with a spectrophotometer (POLARstar Omega, BMG Labtech or Cytation 5, BioTek). Untreated cells and media only (with alamarBlue®) were used as controls. […] The relative viabilities of the cells were determined as per the manufacturer’s instructions and using GraphPad Prism® software to generate a non-linear curve fit and interpolate the in vitro LD50 for each SCC. This assay was performed with three technical replicates for each SCC and Ag-PPE-SCK dose and biological replicates were performed in quadruplicate on separate days (3 technical replicates × 4 biological replicates = 12 total replicates). The DEM for each SCC was determined as the ratio of the molar LD50 and MBC concentrations (LD50/MBC).

Series [3] deals with immortalized human bronchial epithelial cells (16HBE). Description: alamarBlue cytotoxicity assay against 16HBE cells (in vitro LD50). The class given is cell-based. As to conditions: 24 h. The method, then: as §1, §2
For series [4], the system named is 16HBE cells vs. PA M57-15. Description: Drug efficacy metric (DEM = LD50/MBC) using 16HBEs. Details: species or system human. As to conditions: 16HBE-based DEM; one-way ANOVA with Tukey's test or unpaired t-test. As for the experimental part: as §2, with “This assay was performed with three technical replicates for each SCC and Ag-PPE-SCK dose and biological replicates were performed in quadruplicate on separate days (3 technical replicates × 4 biological replicates = 12 total replicates).” left out

Details of series [5]: method as in PMID 23930200. As to conditions: radiolabelled Ag+; cited from earlier work.
Series [6] deals with primary tracheal epithelial cells grown at air-liquid interface. On the set-up: method as in PMID 20005242. As to conditions: higher than 16HBE; cited from earlier work.
Details of series [7]: method as in PMID 20449175. As to conditions: cited from earlier work.

Consider `CC(=O)[O][Ag][c]1n(C)c2c(c(=O)n(C)c(=O)n2C)[n+]1C` [SCC1], for which, in series [1], the “bacterial colonies in lung tissue” value is “complete absence of bacterial colonies” and the aggregate histological score entry is on record as “+4”. The LD50 in series [2] was 25.8 µM. The LD50 in series [3] was 297 µM. The “DEM compared between formulations” value in series [4] is “significantly higher DEMs than SCC23 and SCC28”. Further, the “accumulation in the liver” value in series [5] is recorded as “minimal accumulation”. Besides, the “LD50 of primary cells relative to that of 16HBE” value in series [6] is “about 2 log10”.
For the compound `CC(=O)[O][Ag][c]1n(Cc2ccc3ccccc3c2)c(Cl)c(Cl)[n+]1Cc1ccc2ccccc2c1` [SCC23], in series [1], the “bacterial colonies in lung tissue” value was “bacterial colonies were not identified”. The aggregate histological score entry in series [1] is listed as “+4”. Further, the LD50 in series [2] was 14.2 µM; in series [3] it was 14.7 µM.
For `CC(=O)[O][Ag][c]1n(CCCO)c(Cl)c(Cl)[n+]1C` [SCC22], in series [1], the “bacterial colonies in lung tissue” value is recorded as “No bacterial colonies were identified” and the aggregate histological score entry is “+3”. Besides, the LD50 in series [2] is recorded as 22.7 µM. Further, the LD50 in series [3] turned out to be 224 µM. The water solubility entry in series [7] is listed as “up to 110 g/L”. Besides, the “DEM compared between formulations” value in series [4] was “significantly higher DEMs than SCC23 and SCC28”.
As for `CCCCCCn1c(Cl)c(Cl)[n+](Cc2ccc3ccccc3c2)[c]1[Ag][O]C(C)=O` [SCC28], the “bacterial colonies in lung tissue” value in series [1] is given as “bacterial colonies were not identified”. In series [1], this compound displayed an aggregate histological score of 4. Further, the results for the LD50 in series [2] and in series [3] were 9.8 µM and 58.1 µM, respectively.
